*1 amine or outer side, *2 acyl side, *3 side chain or, on linkers, in order; H or OH if unused. Where a SMILES comes first, the peptide text is derived from it. Bridges are numbered along the chain shown (N, C = ends). [ ]: non-standard residue; d: D form. The star is where a group is joined. hPhe(3-Cl-4-CF3) = N[C@@H](CCc1ccc(C(F)(F)F)c(Cl)c1)C(=O)O; NPrPhe(4-CF3) = CCCN[C@@H](Cc1ccc(C(F)(F)F)cc1)C(=O)O; NEtPhe(4-Me) = CCN[C@@H](Cc1ccc(C)cc1)C(=O)O; X15 = CCCN([C@@H](Cc1ccccc1)C(=O)[*:2])[*:1]; NMeGly(cPent) = CN[C@H](C(=O)O)C1CCCC1; Hyp = O=C(O)[C@@H]1C[C@@H](O)CN1; NMeD = CN[C@@H](CC(=O)O)C(=O)O; NMeL = CN[C@@H](CC(C)C)C(=O)O; NMeNva = CCC[C@H](NC)C(=O)O; Morpholide = C1CN(*)CCO1; NMeA = CN[C@@H](C)C(=O)O; Ac5c = NC1(C(=O)O)CCCC1; Aze = O=C(O)[C@@H]1CCN1; Aib = CC(C)(N)C(=O)O; Sar = CNCC(=O)O
How the values were obtained:
HRAS wild-type protein = HRAS wild-type protein (Homo sapiens, UniProt P01112); assay: Binding to HRAS by surface plasmon resonance (SPR), KD and KD ratio to KRAS
Summary of the method: (§1)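 GDP-bound biotin-Avi RAS captured at ~100–300 RU, 30°C, pH 7.4 HBS containing 10 µM GDP, 10 mM MgCl2, 1 mM DTT, 0.01% Tween 20 and 4% DMSO. KD by 1:1 fitting.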

[1] = system: human lung cancer strain NCI-H441; format: cell-based
Summary of the method: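 Readout: […] after the ATP-based reagent. Compound: serial dilutions in dimethyl sulfoxide.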

[2] = target: GDP-bound NRAS wild-type protein (Homo sapiens, UniProt P01111); assay: Binding to NRAS by surface plasmon resonance (SPR), KD and KD ratio to KRAS
Summary of the method: as §1

[3] = ratio of KD for HRAS wild-type protein to KD for KRAS
[4] = ratio of KD for GDP-bound NRAS wild-type protein to KD for KRAS
[5] = ratio of KD value for HRAS wild-type protein to KD value for KRAS (SPR)
[6] = ratio of KD value for GDP-bound NRAS wild-type protein to KD value for KRAS (SPR)
[7] = ratio of the KD value with respect to HRAS wild-type protein to the KD value with respect to KRAS
[8] = ratio of the KD value with respect to GDP-bound NRAS wild-type protein to the KD value with respect to KRAS

Sequence of HRAS wild-type protein (P01112 whole entry): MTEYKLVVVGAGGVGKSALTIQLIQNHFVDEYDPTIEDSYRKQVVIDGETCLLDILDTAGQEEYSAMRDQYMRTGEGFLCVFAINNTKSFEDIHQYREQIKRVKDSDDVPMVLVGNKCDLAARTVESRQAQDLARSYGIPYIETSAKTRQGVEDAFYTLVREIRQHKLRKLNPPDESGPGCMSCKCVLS
Sequence of GDP-bound NRAS wild-type protein (P01111 whole entry): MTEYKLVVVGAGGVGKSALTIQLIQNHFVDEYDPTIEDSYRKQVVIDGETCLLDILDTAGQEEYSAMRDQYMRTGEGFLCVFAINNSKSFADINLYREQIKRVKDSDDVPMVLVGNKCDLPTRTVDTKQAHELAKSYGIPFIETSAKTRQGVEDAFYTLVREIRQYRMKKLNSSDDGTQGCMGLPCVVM

SMILES	HRAS /KRAS (HRAS wild-type protein; [3])	IC50 [1] [nM]	NRAS /KRAS [2, 4]	HRAS /KRAS (HRAS wild-type protein; [5])	NRAS /KRAS [2, 6]	HRAS /KRAS (HRAS wild-type protein; [7])	NRAS /KRAS [2, 8]
CCC[C@H]1C(=O)N[C@@H]([C@@H](C)CC)C(=O)N(C)CC(=O)N(C)CC(=O)N(CCC)[C@@H](Cc2ccc(C(F)(F)F)cc2)C(=O)N(C)CC(=O)N[C@@H](CCc2ccc(C(F)(F)F)c(Cl)c2)C(=O)N2CCC[C@H]2C(=O)NC2(CCCC2)C(=O)N(C)[C@@H](C2CCCC2)C(=O)N(C)[C@H](C(=O)N2CCOCC2)CC(=O)N1C [PP0189] ([NMeNva]I[Sar][Sar][NPrPhe(4-CF3)][Sar][hPhe(3-Cl-4-CF3)]P[Ac5c][NMeGly(cPent)][NMeD]-Morpholide; lactam N-11)	C (A compound having a KD ratio of 0.1 or more and less than 3 is denoted as C)	3	B (a compound having 3 or more and less than 10 is denoted as B)				
CCO[C@@H]1C[C@H]2C(=O)NC3(CCC3)C(=O)N(C)[C@@H](C3CCCC3)C(=O)N(C)[C@H](C(=O)N(C)CC)CC(=O)N(C)[C@H]3CCC/C=C/c4ccc(cc4)C[C@@H](C(=O)N(C)CC(=O)N[C@@H](CCc4ccc(C(F)(F)F)c(OC)c4)C(=O)N2C1)N1CC/C=C\C[C@@H](C1=O)N(C)C(=O)CN(C)C(=O)[C@H]([C@@H](C)CC)NC3=O [PP1834]		2.1		B (a compound having 3 or more and less than 10 is denoted as B)	A (a compound having 10 or more and less than 20 is denoted as A)		
CCO[C@@H]1C[C@H]2C(=O)NC3(CC=CC3)C(=O)N(C)[C@@H](C3CCCC3)C(=O)N(C)[C@H](C(=O)N3CCOCC3)CC(=O)N(C)[C@@H](CC(C)C)C(=O)N[C@@H]([C@@H](C)CC)C(=O)N(C)CC(=O)N(C)[C@H]3CCCCCN(C3=O)[C@@H](Cc3ccc(C(F)(F)F)cc3)C(=O)N(C)CC(=O)N[C@@H](CCc3cc(F)c(C(F)(F)F)c(F)c3)C(=O)N2C1 [PP0727]		85.2				B (a compound having 3 or more and less than 10 is denoted as B)	B (a compound having 3 or more and less than 10 is denoted as B)
CC[C@H](C)[C@@H]1NC(=O)[C@H](CC(C)C)N(C)C(=O)C[C@@H](C(=O)N2CCOCC2)N(C)C(=O)[C@H](C2CCCC2)N(C)C(=O)C2(CCCC2)NC(=O)[C@@H]2C[C@@H](O)CN2C(=O)[C@H](CCc2ccc(C(F)(F)F)c(Cl)c2)NC(=O)CN(C)C(=O)[C@H](Cc2ccc(C)cc2)N(CC)C(=O)[C@@H]2CCN2C(=O)[C@H](C)N(C)C1=O [PP0013] ([NMeL]I[NMeA][Aze][NEtPhe(4-Me)][Sar][hPhe(3-Cl-4-CF3)][Hyp][Ac5c][NMeGly(cPent)][NMeD]-Morpholide; lactam N-11)	C (A compound having a KD ratio of 0.1 or more and less than 3 is denoted as C)	9.8	C (A compound having a KD ratio of 0.1 or more and less than 3 is denoted as C)				
CCCN(C)C(=O)[C@@H]1CC(=O)N(C)[C@@H](CC(F)(F)F)C(=O)N[C@@H]([C@@H](C)CC)C(=O)N(C)CC(=O)N(C)[C@H]2C/C=C\CCN(C2=O)[C@@H](Cc2ccc(C(F)(F)F)cc2)C(=O)N(C)CC(=O)N[C@@H](CCc2cc(F)c(C(F)(F)F)c(F)c2)C(=O)N2C[C@H](OCC)C[C@H]2C(=O)NC2(CCC2)C(=O)N(C)[C@@H](C2CCCC2)C(=O)N1C [PP1702]		4.9		A (a compound having 10 or more and less than 20 is denoted as A)	A (a compound having 10 or more and less than 20 is denoted as A)		
CCO[C@@H]1C[C@H]2C(=O)NC3(CCC3)C(=O)N(C)[C@@H](C3CCCC3)C(=O)N(C)[C@H](C(=O)N3CCOCC3)CC(=O)N(C)[C@@H](CC)C(=O)N[C@@H]([C@@H](C)CC)C(=O)N3CC[C@H]3C(=O)N(C)[C@H]3C[C@@H](C)CCN(C3=O)[C@@H](Cc3ccc(C(F)(F)F)cc3)C(=O)N(C)CC(=O)N[C@@H](CCc3cc(F)c(C(F)(F)F)c(F)c3)C(=O)N2C1 [PP1028]	B (a compound having 3 or more and less than 10 is denoted as B)	17.3	B (a compound having 3 or more and less than 10 is denoted as B)				
CCCN1C(=O)[C@@H]2CCN2C(=O)[C@H](C)N(C)C(=O)[C@H]([C@@H](C)CC)NC(=O)[C@H](CC(C)C)N(C)C(=O)C[C@@H](C(=O)N2CCOCC2)N(C)C(=O)[C@H](C2CCCC2)N(C)C(=O)C2(CCCC2)NC(=O)[C@@H]2CCCN2C(=O)[C@H](CCc2ccc(C(F)(F)F)c(Cl)c2)NC(=O)CN(C)C(=O)[C@@H]1Cc1ccccc1 [PP0216] ([NMeL]I[NMeA][Aze][X15][Sar][hPhe(3-Cl-4-CF3)]P[Ac5c][NMeGly(cPent)][NMeD]-Morpholide; lactam N-11)	B (a compound having 3 or more and less than 10 is denoted as B)	3	C (A compound having a KD ratio of 0.1 or more and less than 3 is denoted as C)				
CCO[C@@H]1C[C@H]2C(=O)NC3(CCCC3)C(=O)N(C)[C@@H](C3CCCC3)C(=O)N(C)[C@H](C(=O)N(C)C)CC(=O)N(C)[C@@H](CC(C)C)C(=O)N[C@@H]([C@@H](C)CC)C(=O)N(C)CC(=O)N(C)[C@H]3C/C=C\CCN(C3=O)[C@@H](Cc3ccc(C)cc3)C(=O)N(C)CC(=O)N[C@@H](CCc3ccc(C(F)(F)F)c(Cl)c3)C(=O)N2C1 [PP2195]		7.8				A (a compound having 10 or more and less than 20 is denoted as A)	A (a compound having 10 or more and less than 20 is denoted as A)
CCC[C@H]1C(=O)N[C@@H]([C@@H](C)CC)C(=O)N(C2CC2)CC(=O)N(C)[C@H]2C/C=C\CCN(C2=O)[C@@H](Cc2ccc(C)cc2)C(=O)N(C)CC(=O)N[C@@H](CCc2cc(C)c(C(F)F)c(Cl)c2)C(=O)N2C[C@H](OCC)C[C@H]2C(=O)NC2(CC(C)(C)C2)C(=O)N(C)[C@@H](C2CCCC2)C(=O)N(C)[C@H](C(=O)N(C)C)CC(=O)N1C [PP2875]	A (a compound having 10 or more and less than 20 is denoted as A)	121	A (a compound having 10 or more and less than 20 is denoted as A)				
CCCN(C)C(=O)[C@@H]1CC(=O)N(C)[C@@H](COC)C(=O)N[C@@H]([C@@H](C)CC)C(=O)N(C)CC(=O)N(C)[C@H]2C/C=C\CCN(C2=O)[C@@H](Cc2ccc(C(F)(F)F)cc2)C(=O)N(C)CC(=O)N[C@@H](CCc2cc(F)c(C(F)(F)F)c(F)c2)C(=O)N2C[C@H](OCC)C[C@H]2C(=O)NC2(CC(C)(C)C2)C(=O)N(C)[C@@H](C2CCCC2)C(=O)N1C [PP1672]		6		A (a compound having 10 or more and less than 20 is denoted as A)	A (a compound having 10 or more and less than 20 is denoted as A)		
CCO[C@@H]1C[C@H]2C(=O)NC3(CC(C)(C)C3)C(=O)N(C)[C@@H](C(CC)CC)C(=O)N(C)[C@H](C(=O)N(C)C)CC(=O)N(C)[C@@H](CC3CCC3)C(=O)N[C@@H]([C@@H](C)CC)C(=O)N(C)CC(=O)N(C)[C@H]3C/C=C\CCN(C3=O)[C@@H](Cc3ccc(C)cc3)C(=O)N(C)CC(=O)N[C@@H](CCc3ccc(Cl)c(Cl)c3)C(=O)N2C1 [PP2120]		75.5				A (a compound having 10 or more and less than 20 is denoted as A)	AA (a compound having 20 or more is denoted as AA)
CCCN1C(=O)[C@@H]2CCN2C(=O)[C@H](C)N(C)C(=O)[C@H]([C@@H](C)CC)NC(=O)[C@H](CC(C)C)N(C)C(=O)C[C@@H](C(=O)N2CCOCC2)N(C)C(=O)[C@H](C2CCCC2)N(C)C(=O)C(C)(C)NC(=O)[C@@H]2CCCN2C(=O)[C@H](CCc2ccc(C(F)(F)F)c(Cl)c2)NC(=O)CN(C)C(=O)[C@@H]1Cc1ccc(C(F)(F)F)cc1 [PP0225] ([NMeL]I[NMeA][Aze][NPrPhe(4-CF3)][Sar][hPhe(3-Cl-4-CF3)]P[Aib][NMeGly(cPent)][NMeD]-Morpholide; lactam N-11)	C (A compound having a KD ratio of 0.1 or more and less than 3 is denoted as C)	2.4	C (A compound having a KD ratio of 0.1 or more and less than 3 is denoted as C)				
CC[C@H](C)[C@@H]1NC(=O)[C@H](CCOC)N(C)C(=O)C[C@@H](C(=O)N(C)CC)N(C)C(=O)[C@H](C2CCCC2)N(C)C(=O)C2(CC(C)(C)C2)NC(=O)[C@@H]2C[C@H](C)CN2C(=O)[C@H](CCc2cc(F)c(C(F)(F)F)c(F)c2)NC(=O)CN(C)C(=O)[C@H](Cc2ccc(C(F)(F)F)cc2)N2CC/C=C\C[C@@H](C2=O)N(C)C(=O)CN(C)C1=O [PP1972]		13.2				A (a compound having 10 or more and less than 20 is denoted as A)	A (a compound having 10 or more and less than 20 is denoted as A)
CC[C@H](C)[C@@H]1NC(=O)[C@H](CC(C)C)N(C)C(=O)C[C@@H](C(=O)N2CCOCC2)N(C)C(=O)[C@H](C2CCCC2)N(C)C(=O)C2(CCC2)NC(=O)[C@@H]2[C@H](OC)CCN2C(=O)[C@H](CCc2cc(F)c(C(F)(F)F)c(F)c2)NC(=O)CN(C)C(=O)[C@H](Cc2ccc(C(F)(F)F)cc2)N2CCCCC[C@@H](C2=O)N(C)C(=O)CN(C)C1=O [PP1085]	A (a compound having 10 or more and less than 20 is denoted as A)	590	A (a compound having 10 or more and less than 20 is denoted as A)				
CCO[C@@H]1C[C@H]2C(=O)NC3(CC(C)(C)C3)C(=O)N(C)[C@@H](C3CCCC3)C(=O)N(C)[C@H](C3CCC3)CC(=O)N(C)[C@@H](CC3CC3)C(=O)N[C@@H]([C@@H](C)CC)C(=O)N(C)CC(=O)N(C)[C@H]3C/C=C\CCN(C3=O)[C@@H](Cc3ccc(C(F)(F)F)cc3)C(=O)N(C)CC(=O)N[C@@H](CCc3cc(F)c(C(F)(F)F)c(F)c3)C(=O)N2C1 [PP1635]		36.3		A (a compound having 10 or more and less than 20 is denoted as A)	B (a compound having 3 or more and less than 10 is denoted as B)		

Source: patent publication EP4603105A1, “PHARMACEUTICAL COMPOSITION CONTAINING CYCLIC COMPOUND HAVING SELECTIVE KRAS INHIBITORY EFFECT AGAINST HRAS AND NRAS” (CHUGAI SEIYAKU KABUSHIKI KAISHA, priority 2022, dated 2024)
